Experimental data from the supplement of paper PMC7661543.
± gives the standard deviation of the averaged measurements.

Tests used:
Test in all cases: relative cell number vs DMSO control (72 h) (% of DMSO); higher = less growth inhibition (more cells)
Conditions in all cases: sgRNA knockout: sgNT
MDA-MB-231 = system: MDA-MB-231
Method: (§1)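 QMAP-Seq: a pool of 5 breast cancer cell lines (ZR-75-1, SKBR3, HCC-38, MDA-MB-231, BT-20), each carrying 12 doxycycline-inducible Cas9 sgRNA perturbations (11 knockouts plus non-targeting sgNT), was treated with compounds for 72 h at four 10-fold doses (10 nM-10 uM or 1 nM-1 uM range). Barcodes were amplified and sequenced, and cell number was interpolated from 293T spike-in standard curves. The result is expressed as % of the median of DMSO wells. Two biological replicates.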

BT-20 = system: BT-20
Method: as §1

SKBR3 = system: SKBR3
Method: as §1

ZR-75-1 = system: ZR-75-1
Method: as §1

HCC-38 = system: HCC-38
Method: as §1

Row | Structure (SMILES) | relative cell number (MDA-MB-231; 10 nM) | relative cell number (MDA-MB-231; 100 nM) | relative cell number (MDA-MB-231; 1000 nM) | relative cell number (MDA-MB-231; 10000 nM) | relative cell number (BT-20; 10 nM) | relative cell number (BT-20; 100 nM) | relative cell number (BT-20; 1000 nM) | relative cell number (BT-20; 10000 nM) | relative cell number (SKBR3; 10 nM) | relative cell number (SKBR3; 100 nM) | relative cell number (SKBR3; 1000 nM) | relative cell number (SKBR3; 10000 nM) | relative cell number (ZR-75-1; 10 nM) | relative cell number (ZR-75-1; 100 nM) | relative cell number (ZR-75-1; 1000 nM) | relative cell number (ZR-75-1; 10000 nM) | relative cell number (HCC-38; 10 nM) | relative cell number (HCC-38; 100 nM) | relative cell number (HCC-38; 1000 nM) | relative cell number (HCC-38; 10000 nM)
1 | Cc1cc(N2CCOCC2)cc2[nH]c(-c3c(NC[C@@H](O)c4cccc(Cl)c4)cc[nH]c3=O)nc12 | 85.2 ± 7.6 | 76.6 ± 42 | 77.5 ± 2.4 | 15 ± 2.3 | 70.9 ± 10 | 88.3 ± 11 | 94 ± 14 | 67.4 ± 17 | 107 ± 3.5 | 73 ± 16 | 60 ± 15 | 60.3 ± 12 | 78.8 ± 51 | 53.3 ± 10 | 84.2 ± 8.8 | 13.7 ± 10 | 94.97 ± 0.84 | 89.4 ± 24 | 93.6 ± 7.3 | 30.7 ± 3.4
2 | Cc1ccc(C(=O)N(CCCN)[C@@H](c2oc3cc(Cl)ccc3c(=O)c2Cc2ccccc2)C(C)C)cc1 | 23 ± 9 | 16.8 ± 5.6 | 17.2 ± 11 | 4.71 ± 1.3 | 29.6 ± 8.5 | 27.7 ± 4.7 | 33.7 ± 11 | 5.17 ± 2.2 | 15.6 ± 15 | 11.3 ± 1.2 | 15.3 ± 5.2 | 5.26 ± 4.4 | 26.5 ± 2.3 | 21.8 ± 0.36 | 27.9 ± 5.1 | 3 ± 1.2 | 24 ± 0.85 | 27.8 ± 8.2 | 28.9 ± 4.7 | 5.58 ± 0.82
3 | Cc1ccc(S(=O)(=O)OCC(=O)Nc2ccc(C(=O)O)c(O)c2)cc1 | 128 ± 26 | 61.9 ± 5.4 | 117 ± 20 | 86.1 ± 20 | 101 ± 26 | 115 ± 40 | 108 ± 17 | 95.6 ± 33 | 83.3 ± 40 | 77.3 ± 3.9 | 93.7 ± 14 | 116 ± 58 | 91.2 ± 35 | 68.9 ± 12 | 99.1 ± 36 | 103 ± 8.6 | 119 ± 7.6 | 102 ± 1.3 | 91.8 ± 5.4 | 89.6 ± 9.3
4 | Cc1ccccc1-n1c(Cn2cnc3c(N)ncnc32)nc2cccc(C)c2c1=O | 123 ± 7.7 | 128 ± 20 | 101 ± 9 | 153 ± 48 | 110 ± 2.1 | 133 ± 22 | 102 ± 15 | 113 ± 5.9 | 104 ± 11 | 107 ± 12 | 101.8 ± 0.55 | 93.3 ± 7.2 | 112 ± 23 | 98.5 ± 40 | 71.4 ± 14 | 105 ± 6 | 97.9 ± 27 | 104 ± 18 | 102 ± 12 | 95.6 ± 8.2
5 | Cc1cnc(-c2cnc(NCCNc3ccc(C#N)cn3)nc2-c2ccc(Cl)cc2Cl)[nH]1 | 88.2 ± 11 | 92.2 ± 8.4 | 79.9 ± 25 | 72.7 ± 21 | 110 ± 4.5 | 103 ± 19 | 73.6 ± 3.6 | 106 ± 22 | 99.6 ± 12 | 91.2 ± 2.6 | 73.7 ± 18 | 85.9 ± 40 | 104 ± 21 | 85.3 ± 13 | 66.2 ± 15 | 77.1 ± 10 | 98.4 ± 21 | 89.08 ± 0.19 | 104 ± 2.4 | 126.9 ± 0.6
6 | Cc1cnc(Nc2ccc(OCCN3CCCC3)cc2)nc1Nc1cccc(S(=O)(=O)NC(C)(C)C)c1 | 88.9 ± 26 | 116 ± 5.9 | 64.9 ± 6.9 | 5.85 ± 0.9 | 99.9 ± 19 | 92.6 ± 1.8 | 81.3 ± 12 | 42.5 ± 4.4 | 89 ± 48 | 68.7 ± 15 | 75.4 ± 15 | 16.9 ± 0.89 | 105 ± 22 | 108 ± 2.4 | 71.3 ± 26 | 10.8 ± 5.8 | 99.1 ± 2.6 | 90.301 ± 0.055 | 68.7 ± 8.1 | 11.7 ± 2.2
7 | Cc1nc(Nc2n[nH]c3c2CN(C(=O)N[C@H](CN(C)C)c2ccccc2)C3(C)C)c2sccc2n1 | 35.5 ± 11 | 27.3 ± 6.1 | 13.4 ± 6.6 | 4.59 ± 3.4 | 77.3 ± 21 | 46 ± 2.4 | 31.8 ± 6.6 | 11.6 ± 6.4 | 60.9 ± 22 | 52.5 ± 9 | 21.3 ± 0.55 | 3.5 ± 2.2 | 40.4 ± 14 | 49.8 ± 19 | 25.6 ± 4.3 | 3.38 ± 1.2 | 64.9 ± 5 | 54.5 ± 3.9 | 31.5 ± 1.2 | 13.5 ± 5.3
8 | N#Cc1ccc(COC[C@H]2O[C@@H](n3c(NCc4ccc(Cl)c(Cl)c4)nc4c(N)ncnc43)[C@H](O)[C@@H]2O)cc1 | 83.77 ± 0.66 | 98.3 ± 7 | 115 ± 28 | 28.9 ± 0.7 | 108 ± 25 | 92.7 ± 6.8 | 91.1 ± 26 | 73.2 ± 18 | 105 ± 14 | 139 ± 29 | 106 ± 24 | 60.1 ± 4.3 | 105 ± 48 | 90.5 ± 13 | 64.7 ± 41 | 39.1 ± 0.67 | 90.8 ± 12 | 99.2 ± 8.1 | 99.1 ± 19 | 93.9 ± 15
9 | O=C(NOCC(O)CO)c1cc(Br)c(F)c(F)c1Nc1ccc(I)cc1F (stereo not given) | 105 ± 17 | 75.8 ± 19 | 56.5 ± 25 | 47.5 ± 17 | 86.8 ± 14 | 86.9 ± 14 | 94.1 ± 9.3 | 83.5 ± 7.2 | 118 ± 48 | 123 ± 58 | 112 ± 36 | 83.5 ± 34 | 83.5 ± 48 | 76.9 ± 7.1 | 71.2 ± 4.6 | 56.5 ± 2.3 | 85.4 ± 6.8 | 83.2 ± 6.4 | 81.8 ± 3.8 | 86.2 ± 8.4
10 | O=C1NC(=O)/C(=C/c2ccc3nccc(-c4ccncc4)c3c2)S1 | 79.8 ± 14 | 87.5 ± 0.95 | 96 ± 18 | 54.1 ± 2.6 | 92.4 ± 28 | 81.1 ± 9.8 | 62.2 ± 16 | 46.5 ± 18 | 112 ± 35 | 123 ± 53 | 90.9 ± 9.8 | 34.7 ± 6.4 | 78.3 ± 2.5 | 128 ± 6.6 | 99 ± 38 | 38.6 ± 7.8 | 95.7 ± 5 | 85.8 ± 11 | 87.5 ± 1.1 | 42.38 ± 0.22
11 | O=c1cc(-c2cccc3c2Sc2ccccc2S3)oc(N2CCOCC2)c1 | 119 ± 4.4 | 77.3 ± 7.3 | 89.5 ± 12 | 46.8 ± 19 | 76.9 ± 1.4 | 116 ± 4.1 | 110.8 ± 0.94 | 109 ± 22 | 85.1 ± 17 | 94.4 ± 12 | 115 ± 17 | 54.3 ± 6.1 | 81.3 ± 28 | 98.8 ± 25 | 75.5 ± 26 | 58.3 ± 15 | 91.6 ± 7.9 | 79.2 ± 1.7 | 88.4 ± 18 | 82.7 ± 9.9
12 | OCc1ccc(-c2ccc(-c3ccc(CO)s3)o2)s1 | 117 ± 27 | 118 ± 5.9 | 102 ± 7.9 | 40 ± 2.9 | 110 ± 32 | 77.9 ± 13 | 24.9 ± 1.5 | 12.3 ± 6.7 | 84.8 ± 34 | 15.6 ± 0.84 | 10.9 ± 4.8 | 5.65 ± 0.36 | 59.9 ± 6 | 9.97 ± 1.1 | 10.6 ± 4.2 | 4.09 ± 1.8 | 118 ± 10 | 119 ± 4.3 | 110 ± 18 | 63.6 ± 18
13 | CC/C(=C(\c1ccc(O)cc1)c1ccc(OCCN(C)C)cc1)c1ccccc1 [4-Hydroxytamoxifen] | 95.8 ± 17 | 88.2 ± 7.9 | 100 ± 3.5 | 96.2 ± 9 | 96.8 ± 8.9 | 88.3 ± 28 | 106 ± 10 | 74.5 ± 21 | 104 ± 19 | 100 ± 45 | 80 ± 2.2 | 40.6 ± 10 | 95.8 ± 9.6 | 61.5 ± 4.8 | 70.2 ± 15 | 34.6 ± 8.6 | 94.8 ± 10 | 93.2 ± 5.7 | 90.4 ± 20 | 81.5 ± 14
